From ChEMBL document CHEMBL1201862, “PubChem BioAssay data set” (2004)
Active and inactive are the calls of the source.

What was measured:
Format in all cases: functional
[1] = biological target: T1, High affinity choline transporter 1 (Homo sapiens, UniProt Q9GZV3); test: CHT inhibitors, dose response, cell-based, 5-point CRC, membrane potential dye (AID 504840)
T1 sequence (Q9GZV3 whole entry): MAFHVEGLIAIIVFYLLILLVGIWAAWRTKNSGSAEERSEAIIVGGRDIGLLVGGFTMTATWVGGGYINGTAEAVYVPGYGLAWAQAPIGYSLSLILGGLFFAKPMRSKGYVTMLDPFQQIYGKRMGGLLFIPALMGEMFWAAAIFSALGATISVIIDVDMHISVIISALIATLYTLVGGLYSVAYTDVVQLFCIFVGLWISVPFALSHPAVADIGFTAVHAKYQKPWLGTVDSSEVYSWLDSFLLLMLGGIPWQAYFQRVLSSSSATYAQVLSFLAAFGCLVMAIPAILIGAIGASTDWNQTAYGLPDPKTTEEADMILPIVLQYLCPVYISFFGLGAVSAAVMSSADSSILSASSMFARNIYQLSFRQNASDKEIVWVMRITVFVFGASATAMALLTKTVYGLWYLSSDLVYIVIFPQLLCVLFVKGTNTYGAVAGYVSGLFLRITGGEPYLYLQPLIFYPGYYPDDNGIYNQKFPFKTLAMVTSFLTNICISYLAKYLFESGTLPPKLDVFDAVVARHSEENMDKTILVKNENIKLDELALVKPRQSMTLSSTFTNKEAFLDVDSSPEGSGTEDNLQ

[2] = biological target: T1, High affinity choline transporter 1; test: CHT inhibitors, dose response, cell-based, 10-point CRC, membrane potential dye (AID 588401);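 further: membrane potential dye fluorescence of choline-evoked depolarization via CHT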
[3] = biological target: T1, High affinity choline transporter 1; test: inhibitors of CHT choline uptake, dose response, cell-based, 3H-choline uptake, CHT LV-AA trafficking mutant, CRC (AID 602208)

Measured: IC50

COc1ccc(C(=O)NCc2nc(C)c(C)s2)cc1OC1CCN(C(C)C)CC1
active: [1] 1320 nM | [2] 761 nM | [3] 303 nM
